According to patent US20080009435A1, “Synthetic methods for aplidine and new antitumoral derivatives, methods of making and using them” (Pharma Mar, S.A., a Spain corporation, priority 2000, published 2008):
Where two headings read alike, the source gives them in different places. *1 amine or outer side, *2 acyl side, *3 side chain or, on linkers, in order; H or OH if unused. Where a SMILES comes first, the peptide text is derived from it. Bridges are numbered along the chain shown (N, C = ends). [ ]: non-standard residue; d: D form. The star is where a group is joined. X1 = CC[C@H](C)[C@@H](N[*:1])[C@@H](O)CC(=O)O[C@H](C(=O)[C@H](C)C(=O)[*:2])C(C)C; NMeY = CN[C@@H](Cc1ccc(O)cc1)C(=O)O; dNMeL = CN[C@H](CC(C)C)C(=O)O; Pyruvoyl = CC(=O)C(=O)*

Key:
5637 (Bladder) = assay: IC50 Aplidine Family panel (MTT/MTS); format: cell-based; settings: MTT; read-out: IC50 (Molar) Bladder 5637
FADU (Pharynx) = assay: IC50 Aplidine Family panel (MTT/MTS); format: cell-based; settings: MTT, read-out: IC50 (Molar) Pharynx FADU
[1] = tested on: HL-60 (ALL, Promyelocytic leukemia); assay: IC50 Aplidine Family panel (MTT/MTS); format: cell-based; settings: MTT, read-out: IC50 (Molar) ALL (Promyelocytic leukemia) HL-60
PC-3 (Prostate) = assay: IC50 Aplidine Family panel (MTT); format: cell-based; settings: read-out: IC50 (Molar) Prostate PC-3
[2] = doses near those required for therapeutic applications; cited from earlier work
MX-1 (Breast) = assay: IC50 Aplidine Family panel (MTT/MTS); format: cell-based; settings: MTT; read-out: IC50 (Molar) Breast MX-1
PANC-1 (Pancreas) = assay: IC50 Aplidine Family panel (MTT); format: cell-based
SK-HEP-1 (Liver) = assay: IC50 Aplidine Family panel (MTT/MTS); format: cell-based; settings: MTT, read-out: IC50 (Molar) Liver SK-HEP-1
Hs746t (Gastric) = assay: IC50 Aplidine Family panel (MTT/MTS); format: cell-based; settings: MTT, read-out: IC50 (Molar) Gastric Hs746t
HT-29 (Colon) = assay: IC50 Aplidine Family panel (MTT/MTS); format: cell-based, human; settings: MTT, read-out: IC50 (Molar) Colon HT-29
[3] = tested on: Molt 3 (ALL, Acute lymphobalstic); assay: IC50 Aplidine Family panel (MTT/MTS); format: cell-based; settings: MTT, read-out: IC50 (Molar) ALL (Acute lymphobalstic) Molt 3
A549 (NSCL) = assay: IC50 Aplidine Family panel (MTT/MTS); format: cell-based, human; settings: MTT, read-out: IC50 (Molar) NSCL A549
CCRF-SB (ALL, B-cell) = assay: IC50 Aplidine Family panel (MTT); format: cell-based; settings: read-out: IC50 (Molar) ALL (B-cell) CCRF-SB
[4] = tested on: Hut 78 (Lymphoma, Cutaneous T cell); assay: IC50 Aplidine Family panel (MTT); format: cell-based
[5] = tested on: U-937 (Lymphoma, Histiocytic); assay: IC50 Aplidine Family panel (MTT); format: cell-based
SK-OV-3 (Ovary) = assay: IC50 Aplidine Family panel (MTT); format: cell-based
SW 694 (Fibrosarcoma) = assay: IC50 Aplidine Family panel (MTT/MTS); format: cell-based; settings: MTT; read-out: IC50 (Molar) Fibrosarcoma SW 694
786-O (Renal) = assay: IC50 Aplidine Family panel (MTT); format: cell-based
[6] = tested on: P3HR1 (Lymphoma, Burkitts ascites); assay: IC50 Aplidine Family panel (MTT); format: cell-based
H9 (Lymphoma, T cell) = assay: IC50 Aplidine Family panel (MTT/MTS); format: cell-based; settings: MTT, read-out: IC50 (Molar) Lymphoma (T cell) H9
[7] = tested on: MC116 (Lymphoma, undifferentiated); assay: IC50 Aplidine Family panel (MTT/MTS); format: cell-based; settings: MTT, read-out: IC50 (Molar) Lymphoma (undifferentiated) MC116
[8] = tested on: K562 (CML, Chronic myelogenous); assay: IC50 Aplidine Family panel (MTT/MTS); format: cell-based; settings: MTT, read-out: IC50 (Molar) CML (Chronic myelogenous) K562
P388 Murine lymphoma = assay: Cytotoxicity IC50 (after Berjeron et al); settings: Mus musculus, P388, read-out: Cytotoxicity of [aa3]-aplidine Congeners IC50 (Molar) P388
Description: (§1) Methodology: after Berjeron et al, Biochem and Bioph Res. Comm., 1984, 121, 3, 848-854.
(§2) P388=Murine lymphoma. A549=human lung carcinoma. HT-29=human colon carcinoma. MEL-28=human melanoma.
(§3) A549=human lung carcinoma. HT-29=human colon carcinoma. MEL-28=human melanoma.

[9] = tested on: ARH-77 (Leukemia, Plasma cell); assay: IC50 Aplidine Family panel (MTT); format: cell-based; settings: Homo sapiens, read-out: IC50 (Molar) Leukemia (Plasma cell) ARH-77
[10] = tested on: HT-29 human colon carcinoma; assay: Cytotoxicity IC50 (after Berjeron et al); settings: Homo sapiens, HT-29, read-out: Cytotoxicity of [aa3]-aplidine Congeners IC50 (Molar) HT29
Description: as §1, §2, §3

MEL-28 human melanoma = assay: Cytotoxicity IC50 (after Berjeron et al); settings: Homo sapiens, SK-MEL-28, read-out: Cytotoxicity of [aa3]-aplidine Congeners IC50 (Molar) MEL28
Description: as §1, §2, §3

[11] = tested on: A549 human lung carcinoma; assay: Cytotoxicity IC50 (after Berjeron et al); settings: Homo sapiens, A549, read-out: Cytotoxicity of [aa3]-aplidine Congeners IC50 (Molar) A549
Description: as §1, §2, §3

Molecule `CC[C@H](C)[C@H]1NC(=O)[C@@H](NC(=O)[C@@H](CC(C)C)N(C)C(=O)[C@@H]2CCCN2C(=O)C(C)O)[C@@H](C)OC(=O)[C@H](Cc2ccc(OC)cc2)N(C)C(=O)[C@@H]2CCCN2C(=O)[C@H](CC(C)C)NC(=O)[C@@H](C)C(=O)[C@H](C(C)C)OC(=O)C[C@@H]1O` (some centres unmarked) [Didemnin B] has an IC50 (5637 (Bladder)) of 25 nM, an IC50 (FADU (Pharynx)) of 97.9 nM and an IC50 [1] of 144 nM. For the same molecule, the IC50 (PC-3 (Prostate)) was 90 nM, the toxicity [2] was “toxic at doses near those required for therapeutic applications” and the IC50 (MX-1 (Breast)) was 1540 nM. For the same molecule, the IC50 (PANC-1 (Pancreas); read-out: IC50 (Molar) Pancreas PANC-1) was 0.152 nM, the IC50 (SK-HEP-1 (Liver)) was 92.1 nM and the IC50 (Hs746t (Gastric)) was 6.6 nM. For the same molecule, the IC50 (HT-29 (Colon)) was 80.7 nM, the IC50 [3] was 545 nM and the IC50 (A549 (NSCL)) was 121 µM. It also gave an IC50 (CCRF-SB (ALL, B-cell)) of 655 nM, an IC50 ([4]; read-out: IC50 (Molar) Lymphoma (Cutaneous T cell) Hut 78) of 35.6 nM and an IC50 ([5]; read-out: IC50 (Molar) Lymphoma (Histiocytic) U-937) of 187 nM. The IC50 (SK-OV-3 (Ovary); read-out: IC50 (Molar) Ovary SK-OV-3) was 163 nM, the IC50 (SW 694 (Fibrosarcoma)) was 3280 nM and the IC50 (786-O (Renal); read-out: IC50 (Molar) Renal 786-O) was 290 nM. It also gave an IC50 ([6]; read-out: IC50 (Molar) Lymphoma (Burkitts ascites) P3HR1) of 55.8 nM, an IC50 (H9 (Lymphoma, T cell)) of 213 nM and an IC50 [7] of 8.84 nM. It also gave an IC50 [8] of 3310 nM.

In the case of `CC[C@H](C)[C@H]1NC(=O)[C@@H](NC(=O)[C@@H](CC(C)C)N(C)C(=O)[C@@H]2CCCN2C(=O)C(C)=O)[C@@H](C)OC(=O)[C@H](Cc2ccc(OC)cc2)N(C)C(=O)[C@@H]2CCCN2C(=O)[C@H](CC(C)C)NC(=O)[C@@H](C)C(=O)[C@H](C(C)C)OC(=O)C[C@@H]1O` [SAPL1, Aplidine] (Pyruvoyl-P[dNMeL]T[X1]LP[NMeY](Me); ester 3-C), the IC50 (5637 (Bladder)) is reported as 35.9 nM, the IC50 (P388 Murine lymphoma) is reported as 0.18 nM and the IC50 (FADU (Pharynx); Homo sapiens, FaDu) is reported as 72.9 nM. The IC50 ([1]; Homo sapiens, HL-60) was 78.9 nM, the IC50 (MX-1 (Breast)) was 167 nM and the IC50 (PANC-1 (Pancreas); Homo sapiens, PANC-1, read-out: IC50 (Molar) Pancreas PANC-1) was 170 nM. It also gave an IC50 (SK-HEP-1 (Liver); Homo sapiens, SK-HEP1) of 94.4 nM, an IC50 [9] of 178 nM and an IC50 (Hs746t (Gastric); Homo sapiens, Hs746T) of 25.2 nM. It also gave an IC50 (HT-29 (Colon); Homo sapiens, HT-29) of 687 nM, an IC50 [10] of 0.45 nM and an IC50 ([3]; Homo sapiens, MOLT-3) of 595 nM. For the same molecule, the IC50 (A549 (NSCL); Homo sapiens, A549) was 24 µM, the IC50 (CCRF-SB (ALL, B-cell); Homo sapiens, CCRF-SB) was 472 nM and the IC50 ([4]; Homo sapiens, HuT78, read-out: IC50 (Molar) Lymphoma (Cutaneous T cell) Hut 78) was 44.7 nM. For the same molecule, the IC50 ([5]; Homo sapiens, U-937, read-out: IC50 (Molar) Lymphoma (Histiocytic) U-937) was 562 nM, the IC50 (SK-OV-3 (Ovary); Homo sapiens, SK-OV-3, read-out: IC50 (Molar) Ovary SK-OV-3) was 72 nM and the IC50 (MEL-28 human melanoma) was 0.45 nM. It also gave an IC50 (SW 694 (Fibrosarcoma)) of 1490 nM, an IC50 (786-O (Renal); Homo sapiens, 786-0, read-out: IC50 (Molar) Renal 786-O) of 83.1 nM and an IC50 ([6]; Homo sapiens, P3HR-1, read-out: IC50 (Molar) Lymphoma (Burkitts ascites) P3HR1) of 53.4 nM. It also gave an IC50 (H9 (Lymphoma, T cell); T-cell) of 525 nM, an IC50 ([7]; Homo sapiens, MC116) of 921 nM and an IC50 ([8]; Homo sapiens, K562) of 572 nM. It also gave an IC50 [11] of 0.18 nM.
